Reference: patent US8008506B2, “Indazole compounds” (priority 2008, dated 2011)
Values after ≈ are worked out from the molar mass of the structure shown. Read-outs that look alike come from different tables or passages of the source.

What was measured:
[1] = Test Example 13: stability in pure water; assay type: physicochemical
Experimental: Test on Stability in Pure Water
A test compound is prepared in pure water to be in the saturated state. This solution is shaken for one hour at room temperature. After the shaking, the entire amount of the solution is transferred into a filter tube, and the solution is filtered by centrifugation. The filtrate is analyzed by HPLC immediately after filtration, 24 hours after filtration, and 48 hours after filtration. The stability of the test compound is determined using a calibration curve, based on the peak area value.
A standard solution is prepared by precisely weighing each test compound, and preparing a solution that sufficiently dissolves in pure water. The calibration curve is produced by assigning the concentration of the standard solution to the horizontal axis, and assigning the HPLC area peak at the concentration to the vertical axis.
(§1) YMC-Pack C18 (4.6 mm×150 mm) (manufactured by YMC Co., Ltd.) is used as a separating column. The detection is performed with UV-254 nm. The temperature in the column is set at 40° C. Elution is carried out at a flow rate of 1 ml/min, using solution A=water [containing 0.1% (v/v) acetic acid] and solution B=acetonitrile as the solvents, under the conditions in which a linear gradient of the solution B is run from 5 to 98% (v/v) from zero minute to 20 minute, subsequently solution B is eluted at 98% up to 25 minute, and the solution B is eluted at 5% from 25.01 minute to 35 minute.

[2] = system: urinary bladder smooth muscle isolated from common marmoset; assay: Test Example 7: relaxant activity on urinary bladder smooth muscle isolated from common marmoset; conditions: KCl 40 mmol/L contraction, papaverine 10^−4 mol/L relaxation taken as 100%
Experimental: Common marmosets are (CLEA Japan, Inc.) exsanguinated to death, and then are subjected to laparotomy to isolate the urinary bladder therefrom. […] The strips are applied a resting tension of 1 g, and are equilibrated for at least 30 minutes. After the resting tension of the strips have been equilibrated, KCl at a final concentration of 40 mmol/L is repeatedly added to the organ bath, and it is confirmed that contraction due to KCl becomes almost constant. […] When the relaxation response at the maximum concentration of the test compound is completed, papaverine at a final concentration of 10^−4 mol/L is added, and the maximum relaxation response of each strip is determined.

[3] = Test Example 11: solubility in hydrochloric acid buffer solution at pH 1.2; assay type: physicochemical; conditions: simulated gastric fluid, thermodynamic from solid; hydrochloric acid buffer solution at pH 1.2, 37° C., one hour, 1 mg/mL nominal
Experimental: Test on Solubility in Hydrochloric Acid Buffer Solution at pH 1.2
(§2) A test compound is precisely weighed to 500 μg, and a hydrochloric acid buffer solution at pH 1.2 is added thereto to a concentration of 1 mg/mL. The solution is shaken at 37° C. for one hour. After the shaking, the entire amount of the solution is transferred into a filter tube, and the solution is filtered by centrifugation. The filtrate is analyzed by HPLC, and the solubility of the test compound is determined by dividing the peak area value of the filtrate by the peak area value of the standard solution.
The standard solution is prepared by precisely weighing 500 μg of the test compound, and dissolving the test compound in DMSO to a concentration of 1 mg/mL.
as §1, with “nm.” for “nm. The temperature in the column is set at 40° C.”, “[…]” for “35”

[4] = target: T1, human α1A adrenergic receptor (Homo sapiens, UniProt P35348); assay: Test Example 4: human α1A adrenergic receptor agonist activity (Ca flux, Fura-2, transfected HEK293 cells); assay type: cell-based; conditions: for Emax: HEK293, read-out: α1A receptor I.A.; for α1A receptor I.A.: maximum response to norepinephrine taken as 100%
T1 construct: expressed in transfected cells; host or cells: HEK293 cells, pcDNA3.1(−), hygromycin B selection
T1 sequence (P35348 1-466): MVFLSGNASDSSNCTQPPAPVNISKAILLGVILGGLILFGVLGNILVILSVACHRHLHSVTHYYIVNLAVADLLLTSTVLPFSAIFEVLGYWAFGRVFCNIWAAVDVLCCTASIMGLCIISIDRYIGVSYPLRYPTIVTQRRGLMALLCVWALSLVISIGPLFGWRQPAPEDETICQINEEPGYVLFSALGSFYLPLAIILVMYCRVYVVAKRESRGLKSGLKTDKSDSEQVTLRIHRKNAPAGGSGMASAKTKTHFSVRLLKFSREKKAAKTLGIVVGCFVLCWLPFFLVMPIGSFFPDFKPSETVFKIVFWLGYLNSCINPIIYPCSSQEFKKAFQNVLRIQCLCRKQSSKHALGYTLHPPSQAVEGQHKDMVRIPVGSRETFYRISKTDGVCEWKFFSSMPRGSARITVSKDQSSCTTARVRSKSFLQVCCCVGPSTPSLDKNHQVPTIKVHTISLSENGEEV
Experimental: Measurement of Human α1A Adrenergic Receptor Agonist Activity
The measurement of human α1A adrenergic receptor agonist activity is carried out using HEK293 cells transfected with pcDNA3.1(−) (manufactured by Invitrogen, Inc.) to which human α1A gene has been inserted. These cells are cultured in DMEM medium containing 10% fetal bovine serum, 400 μg/ml hygromycin B (manufactured by Gibco BRL), 100 U/ml penicillin and 100 μg/ml streptomycin. […] The cells are loaded in a CO2 incubator for 30 minutes, and then are washed twice with the Assay Buffer to remove excess Fura-2AM. The cells are centrifuged, and then are prepared into a solution at 5×10^6 cells/ml with the Assay Buffer. Subsequently, the cells are dispensed on a 96-well plate (manufactured by Corning, Inc.) at a volume of 80 μl/well, and the plate is used as a cell plate. […] Subsequently, measurement of fluorescence intensity (excitation wavelength 340 nm and 380 nm, measurement wavelength 500 nm) is initiated at an interval of 2 seconds. After making measurements for about 30 seconds, 20 μl of the test sample from the sample plate is added to the cell plate, and measurements are further continued for 270 seconds. The Ca flux resulting from the test compound is calculated utilizing the difference between the maximum value of fluorescence intensity ratio at the wavelengths 340 nm and 380 nm after the addition of the test compound, and the fluorescence intensity ratio before the addition of the test compound, as the peak height.

[5] = Test Example 12: solubility in physiological saline; assay type: physicochemical; conditions: saline or isotonic, thermodynamic from solid, 37° C., one hour, 1 mg/mL nominal
Experimental: as §2
Test on Solubility in Physiological Saline
The solubility of a test compound is determined by performing the same test as that performed in Test Example 11, except that the hydrochloric acid buffer solution at pH 1.2 is changed to physiological saline.

[6] = Table 1, Test Example 4, read-out: α1A receptor EC50
[7] = Table 2, Test Example 4, read-out: α1A receptor EC50

Structure (SMILES) | HPLC area percent ([1]; after 24 hours) | HPLC area percent ([1]; after 48 hours) | HPLC area percent ([1]; immediately after filtration) | solubility at 1 h [3] | EC50 [4] | Emax [4] | solubility at 1 h [5] | α1A receptor I.A. ([4]; Table 2) | EC50 [4, 6] | EC50 [4, 7] | relaxant activity (%) 10^−4 M [2] | relaxant activity (%) 10^−5 M [2] | EC50 ([4]; read-out: α1A receptor EC50, Table 2, Test Example 4)
CC(C)c1n[nH]c2cc(OCCNC[C@H](O)c3cccc(NS(C)(=O)=O)c3)ccc12 [Example 1, (R)-N-(3-(1-hydroxy-2-(2-(3-isopropylindazol-6-yloxy)ethylamino)ethyl)phenyl)methanesulfonamide] | 99.8% | 99.8% | 100% | ≥ 1000 µg/mL | > 2000 nM | 8% | ≥ 1000 µg/mL | – | – | – | 68.6% | 49.9% | –
CCc1n[nH]c2cc(OCCNC[C@H](O)c3cccc(NS(C)(=O)=O)c3)ccc12 [Example 2, (R)-N-(3-(1-hydroxy-2-(2-(3-ethylindazol-6-yloxy)ethylamino)ethyl)phenyl)methanesulfonamide] | 98.2% | 98.2% | 98.2% | ≥ 1000 µg/mL | 855 nM | 24% | ≥ 1000 µg/mL | 24% | – | – | 57.8% | 43.4% | 855 nM
CS(=O)(=O)Nc1cccc([C@@H](O)CNCCOc2ccc3c(C(F)(F)F)n[nH]c3c2)c1 [Example 4, (R)-N-(3-(1-hydroxy-2-(2-(3-trifluoromethylindazol-6-yloxy)ethylamino)ethyl)phenyl)methanesulfonamide] | 98.7% | 98.6% | 98.7% | 963 µg/mL (≈ 2100 µM) | 892 nM | 40% | 932 µg/mL (≈ 2030 µM) | – | – | – | 73.5% | 40.8% | –
CCc1n[nH]c2cc(OCCNC[C@H](O)c3ccc(F)c(NS(C)(=O)=O)c3)ccc12 [Example 8, (R)-N-(5-(2-(2-(3-ethylindazol-6-yloxy)ethylamino)-1-hydroxyethyl)-2-fluorophenyl)methanesulfonamide] | – | – | – | – | – | 5% | – | – | – | > 2000 nM | – | – | –
CCc1n[nH]c2cc(OCCNC[C@H](O)c3ccc(Cl)c(NS(C)(=O)=O)c3)ccc12 [Example 9, (R)-N-(2-chloro-5-(2-(2-(3-ethylindazol-6-yloxy)ethylamino)-1-hydroxyethyl)phenyl)methanesulfonamide] | – | – | – | – | – | 11% | – | – | – | > 2000 nM | – | – | –
CS(=O)(=O)Nc1cc([C@@H](O)CNCCOc2ccc3c(C(F)(F)F)n[nH]c3c2)ccc1Cl [Example 11, (R)-N-(2-chloro-5-(1-hydroxy-2-(2-(3-(trifluoromethyl)indazol-6-yloxy)ethylamino)ethyl)phenyl)methanesulfonamide] | – | – | – | – | – | 0% | – | – | – | > 2000 nM | 39.2% | 20.1% | –
COc1n[nH]c2cc(OCCNC[C@H](O)c3cccc(NS(=O)(=O)c4ccccc4)c3)ccc12 [Example 16, (R)-N-(3-(1-hydroxy-2-(2-(3-methoxyindazol-6-yloxy)ethylamino)ethyl)phenyl)benzenesulfonamide] | – | – | – | – | – | 0% | – | – | – | > 2000 nM | – | – | –

The next lines start with results.

HPLC area percent ([1]; after 24 hours) | HPLC area percent ([1]; after 48 hours) | HPLC area percent ([1]; immediately after filtration) | solubility at 1 h [3] | EC50 [4] | Emax [4] | solubility at 1 h [5] | α1A receptor I.A. ([4]; Table 2) | EC50 [4, 6] | EC50 [4, 7] | Structure (SMILES) | relaxant activity (%) 10^−4 M [2] | relaxant activity (%) 10^−5 M [2] | EC50 ([4]; read-out: α1A receptor EC50, Table 2, Test Example 4)
– | – | – | – | – | 0% | – | 0% | > 2000 nM | > 2000 nM | CCCc1n[nH]c2cc(OCCNC[C@H](O)c3cccc(NS(C)(=O)=O)c3)ccc12 [Example 3, (R)-N-(3-(1-hydroxy-2-(2-(3-propylindazol-6-yloxy)ethylamino)ethyl)phenyl)methanesulfonamide] | – | – | –
– | – | – | ≥ 1000 µg/mL | – | 47% | ≥ 1000 µg/mL | 47% | 836 nM | – | CN(C)C(=O)CCc1n[nH]c2cc(OCCNC[C@H](O)c3cccc(NS(C)(=O)=O)c3)ccc12 [Example 5, (R)-3-(6-(2-(2-hydroxy-2-(3-(methylsulfonamido)phenyl)ethylamino)ethoxy)-indazol-3-yl)-N,N-dimethylpropanamide] | 56.3% | 50.9% | –
– | – | – | ≥ 1000 µg/mL | – | 20% | 993 µg/mL (≈ 2290 µM) | – | > 2000 nM | – | COCc1n[nH]c2cc(OCCNC[C@H](O)c3cccc(NS(C)(=O)=O)c3)ccc12 [Example 6, (R)-N-(3-(1-hydroxy-2-(2-(3-methoxymethylindazol-6-yloxy)ethylamino)ethyl)phenyl)methanesulfonamide] | 42.6% | 35.3% | –
